Test results taken from patent US5362740A, “Dihydrobenzofuran carboxamides and process for their preparation” (Farmitalia Carlo Erba S.r.l., priority 1990, dated 1994).

How the values were obtained:
5HT3 receptor [1] = target: T1, 5HT3 receptor (Rattus norvegicus, UniProt P35563); test: Inhibition of the Bezold-Jarisch chemoreflex evoked by 5-HT in the anesthetized rat (in vivo 5HT3 antagonist activity); parameters: evoked by 5-HT in the anesthetised rat; from tissue; host or cells: whole anesthetized rat (in vivo); details: 5-HT 20 μg/kg I.V.; for % inhibition: mean ± S.E.M. from 6 animals, *p < 0.01 vs controls (Dunnett's test); for ED50: iv, I.V., anesthetized rat, read-out: ED50 (limits)
T1 sequence (P35563 24-483): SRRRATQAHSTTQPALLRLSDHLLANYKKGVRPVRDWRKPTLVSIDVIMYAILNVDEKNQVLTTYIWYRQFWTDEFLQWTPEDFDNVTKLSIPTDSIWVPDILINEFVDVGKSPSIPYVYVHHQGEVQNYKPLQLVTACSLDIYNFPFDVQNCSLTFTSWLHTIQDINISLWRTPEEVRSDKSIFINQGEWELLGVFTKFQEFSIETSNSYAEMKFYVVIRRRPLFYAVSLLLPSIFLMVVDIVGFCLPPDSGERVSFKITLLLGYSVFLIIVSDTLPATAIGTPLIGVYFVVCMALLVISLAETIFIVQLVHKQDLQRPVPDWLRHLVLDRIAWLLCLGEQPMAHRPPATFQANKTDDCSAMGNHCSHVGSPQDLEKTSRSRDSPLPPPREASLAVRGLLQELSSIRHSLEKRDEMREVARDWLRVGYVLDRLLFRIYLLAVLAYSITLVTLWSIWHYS
Protocol: Ther. 248, 197-201 (1989).
Inhibition of the Bezold-Jarisch reflex elicited by 5-HT (20 μg/
Values are mean ± S.E.M. from 6 animals

5HT3 receptor [2] = target: T1, 5HT3 receptor; test: Inhibition of the binding of ^3 H-GR65630; 5-HT3 binding affinity for rat entorhinal cortex; parameters: labeled in the entorhinal cortex of the rat brain; from tissue; host or cells: rat brain entorhinal cortex; details: for fitting model of interaction / displacement of ^3 H-GR 65630: rat entorhinal cortex
5-HT3 receptor = test: as above; details: [^3 H] GR 65630 labeled 5HT3 sites; rat entorhinal cortex; two site non-linear fitting, low

| SMILES | % inhibition (5HT3 receptor [1]; 0.1 μg/kg I.V.) | % inhibition (5HT3 receptor [1]; 0.3 μg/kg I.V.) | % inhibition (5HT3 receptor [1]; 1 μg/kg I.V.) | ED50 (5HT3 receptor [1]) | Ki (5HT3 receptor [2]) | fitting model of interaction / displacement of ^3 H-GR 65630 (5HT3 receptor [2]) | Ki (5-HT3 receptor) | % inhibition (5HT3 receptor [1]; 3 μg/kg I.V.) | % inhibition (5HT3 receptor [1]; 10 μg/kg I.V.) |
| --- | --- | --- | --- | --- | --- | --- | --- | --- | --- |
| CN1C2CCCC1CC(NC(=O)c1cc(Cl)c(N)c3c1OCC3)C2 (stereo not drawn) [FCE 27270, 4-amino-5-chloro-N-(9-methyl-9-azabicyclo[3.3.1]non-3-yl)-2,3-dihydrobenzo[b]furan-7-carboxamide] | 37.25 ± 2.77% | 54.09 ± 3.39% | 89.11 ± 3.39% | 0.2 µg/kg | 0.092 nM | two site non-linear fitting model | 39 nM |  |  |
| CN1C2CCC1CC(OC(=O)c1cc(Cl)cc(Cl)c1)C2 (stereo not drawn) [MDL 72222, reference compound] |  |  |  |  |  | one site non-linear fitting |  |  |  |
| CCN(CC)CCNC(=O)c1cc(Cl)c(N)cc1OC [Metoclopramide, reference compound] |  |  |  |  |  | one site non-linear fitting |  |  |  |
| CN1C2CCC1CC(NC(=O)c1cc(Cl)c(N)c3c1OCC3)C2 (stereo not drawn) [FCE 27271, 4-amino-5-chloro-N-(8-methyl-8-azabicyclo[3.2.1]oct-3-yl)-2,3-dihydrobenzo[b]furan-7-carboxamide] | 23.83 ± 5.50% | 55.69 ± 4.05% | 82.54 ± 2.33% | 0.81 µg/kg | 0.833 nM | two site non-linear fitting model | 96.2 nM |  |  |
| Cc1nccn1CC1CCc2c(c3ccccc3n2C)C1=O (racemic) [Ondansetron, (±)-1,2,3,4-tetrahydro-9-methyl-3-(2-methylimidazol-1-yl-methyl)-carbazol-4-one, reference compound] |  |  | 32.86 ± 8.58% | 2.25 µg/kg |  | two site non-linear fitting model |  | 58.42 ± 3.89% | 81.21 ± 1.82% |
